Assay results published in patent publication US4650900A, “Aminoalkyl substituted urea derivatives and method of treatment” (H. Lundbeck A/S, priority 1985, dated 1987).

Columns and labels:
Type in all cases: in vivo
[1] = Toxicity of Lu 9-110 (LD10, LD50); details: for LD50: mouse, in vivo, ip
[2] = test system: Ehrlich Ascites tumor (EAT); test: Antitumor test in mice, Ehrlich Ascites tumor (EAT) model (ILS %); details: i.p. suspension in methylcellulose, q 8 hrs × 6, 150 mg/kg
Text: (§1) The compound N-(4-dimethylamino-2,2-diphenyl-3-methyl-1-butyl)-urea, (in the following called Lu 9-110), has been tested in mice given several daily/weekly injections against the following experimental model tumors:
Ehrlich Ascites tumor (EAT)

[3] = test system: P 388 lymphocytic leukaemia; test: Antitumor test in mice, P 388 lymphocytic leukaemia model (ILS %)
Text: as §1
P 388 lymphocytic leukaemia

[4] = Preliminary toxicity experiments over 1 and 4 weeks (myelosuppression); details: repeated administration, mice
[5] = test system: L 1210 lymphoid leukaemia; test: Antitumor test in mice, L 1210 lymphoid leukaemia model (ILS %); details: L 1210, i.p. suspension in methylcellulose, q 8 hrs × 6, 150 mg/kg
Text: as §1
L 1210 lymphoid leukaemia

[6] = i.p. solution, accumulated dose
[7] = i.p. suspension, accumulated dose (independent of schedule)

For CC(CN(C)C)C(CNC(N)=O)(c1ccccc1)c1ccccc1 (stereo not shown) [Lu 9-110, N-(4-Dimethylamino-2,2-diphenyl-3-methyl-1-butyl)-urea], the LD10 [1, 6] was 300 to 500 mg/kg, the LD10 ([1]; i.p. solution, single dose) was ~ 100 mg/kg and the LD10 [1, 7] was ~ 1100 mg/kg. It also gave an LD50 [1, 6] of 400 to 600 mg/kg, an LD50 ([1]; i.p. solution, single dose) of roughly 150 mg/kg and an LD50 [1, 7] of roughly 1400 mg/kg. For the same molecule, the ILS % [2] was 120%, the ILS % ([3]; P 388, aqueous solution, q 3 hrs × 8, 50 mg/kg) was 67% and the ILS % ([3]; P 388, aqueous solution, q 8 hrs × 3, 100 mg/kg) was 33%. The ILS % ([3]; P 388, aqueous solution, ×1, 100 mg/kg) was 9%, the ILS % ([3]; P 388, i.p. suspension in methylcellulose, q 8 hrs × 6, 150 mg/kg) was 92% and the myelosuppression [4] was “only very slight myelosuppression”. The ILS % [5] was 33%.
